The results in this text go back to patent US4622321A, “Oxadiazolylimidazobenzodiazepine, compositions, and method” (AS Ferrosan, priority 1985, dated 1986).

One assay concerns benzodiazepine receptors. Description: In vivo inhibition of 3H-flunitrazepam binding to mouse forebrain membranes (Procedure 130). Also noted: species or system mice. Particulars: for ED50 binding in vivo: i.p. 15 min before 3H-FNM i.v., dose which inhibits 50% of specific 3H-FNM binding, mouse forebrain. The protocol: I. In vivo inhibition of ^3 H-flunitrazepam binding to mouse forebrain membranes by test substances administered intraperitoneally. (Procedure 130)
Twenty minutes after a dose of ^3 H-flunitrazepam (^3 H-FNM) (200 μCi/kg, i.v.) the amount of specific ^3 H-FNM binding to brain benzodiazepine receptors has reached its maximal value.
Suspensions of test substances (2 mg/ml) are prepared in 5% Duphasol-X* by sonification for 10 min using a Branson B15 microtip ultrasonifier (setting 7). Groups of three mice (female, NMR, 18-22 gram) are injected with the test substance at 100 mg/kg intraperitoneally. Fifteen minutes after test substance administration the mice are challenged with 4 μCi intraveneously of ^3 H-FNM (70-90 Ci/mole) in 200 μl physiological saline. Twenty minutes after ^3 H-FNM administration mice are sacrificed by decapitation, the forebrains rapidly excised (within 30 sec) and homogenized in 12 ml of icecold 25 mM KH2 PO4, pH 7.1, using an Ultra-Turrax homogenizer fitted with an N 10 shaft. Two aliquots of 1 ml are immediately filtered through Whatman GF/C glassfibre filters and washed with 2×5 ml of the above mentioned buffer. The amounts of radioactivity on the filters are determined by conventional scintillation counting. One group of untreated mice serves as controls. One to three mice are injected with 25 mg/kg clonazepam i.p. 30 minutes before ^3 H-FNM to determine the amount of non-specific ^3 H-FNM binding, which should be between 8-15% of total binding.
*(™Duphar; castor-oil-ethylene oxide derivative for emulsifying and solubilizing oil and other water-insoluble substances)
When doses of 100 mg/kg inhibit more than 50% of specific ^3 H-flunitrazepam binding; test substances are administered in doses, which are factors of 3.16 times lower than 100 mg/kg.
The ED50 for a test substance is defined as that dose which inhibits 50% of specific ^3 H-FNM binding. Specific binding is the amount of binding in controls minus the amount binding in clonazepam-treated mice.
The ED50 value is determined from dose response curves. If only one dose of test substance is administered the ED50 value is calculated as follows, provided that the inhibition of specific binding is within the range of 25-75%: [formula] where Co is specific binding in controls and Cx is specific binding in mice treated with test substance.

In assay [1] the test system is pentylenetetrazol-induced tonic convulsions in mice. Description: Pentazol tonic convulsions in mice, i.p. (Procedure 401). Type of assay: in vivo. Particulars: for ED50: Mus musculus, ip, i.p. 30 min before 150 mg/kg pentylenetetrazol s.c., seizures inhibited in 50% of the animals, read-out: ED50, activity against pentazol induced convulsions, tonic. On the procedure: III. Pentazol tonic conv. mice i.p. (Procedure 401)
Pentylenetetrazol induces clonic and tonic convulsions in mice at doses of 60-120 mg/kg s.c. The mechanism is unknown but seem to be due to some effects through the GABA receptor/benzodiazepine receptor/chloride ionophore complex. Antagonism of convulsions induced by maximal doses of pentylenetetrazol is considered predictive for drugs effective against petit mal epilepsia and anxiety.
150 mg/kg pentylenetetrazol (Pentazol, Sigma) dissolved in 0.9% NaCl is given by the subcutaneous route in volumes of 15 ml/kg to male or female NMRI mice weighing 20-25 g 30 min after an intraperitoneal injection of a test compound.
The ED50 value is calculated as the dose in μg/kg where seizures are inhibited in 50% of the animals using a computer program based on the method of Litchfield and Wilcoxon (1949).

Assay [2] deals with pentylenetetrazol-induced clonic convulsions in mice. Description: Pentazol clonic convulsions in mice, i.p. (Procedure 400). Type of assay: in vivo. Particulars: for ED50: Mus musculus, ip, i.p. 30 min before 150 mg/kg pentylenetetrazol s.c., seizures inhibited in 50% of the animals, read-out: ED50, activity against pentazol induced convulsions, clonic. The protocol:
II. Pentazol clonic conv. mice (i.p.) (Procedure 400)
Pentylenetetrazol induces clonic and tonic convulsions in mice at doses of 60-120 mg/kg s.c. The mechanism is unknown but seems to be due to some effects through the GABA receptor/benzodiazepine receptor/chloride ionophore complex. Antagonism of convulsions induced by maximal doses of pentylenetetrazol is considered predictive for drugs effective against petit mal epilepsia and anxiety.
150 mg/kg pentylenetetrazol dissolved in 0.9% NaCl is given by the subcutaneous route in volumes of 15 ml/kg to male or female NMRI mice weighing 20-25 g 30 min after an intraperitoneal injection of a test compound.
The ED50 value is calculated as the dose in μg/kg at which seizures are inhibited in 50% of the animals using a computer program based on the method of Litchfield and Wilcoxon (1949).

[3] abbreviates: compared to analogue (D), Roche EP 150,040 ex. 44.

For `CN1Cc2c(-c3noc(C4CC4)n3)ncn2-c2ccccc2C1=O` [A, 3-(5-cyclopropyl-1,2,4-oxadiazol-3-yl)-5,6-dihydro-5-methyl-6-oxo-4H-imidazo[1,5-a][1,4]benzodiazepine], in the assay on benzodiazepine receptors (setting [3]), the “times as active in binding affinity for the benzodiazepine receptor” value was “more than 4 times”. For the same compound, the “times more as active in binding affinity for the benzodiazepine receptor” value with benzodiazepine receptors (compared to compound E) is listed as 12 times. Moreover, the “ED50 binding in vivo” value in the assay on benzodiazepine receptors was determined as 80 µg/kg. The ED50 worked out at 0.03 mg/kg in assay [1] and 0.07 mg/kg in assay [2]. Moreover, the “times as active in protecting against pentetrazol induced tonic convulsions” value in assay [1] (setting [3]) is recorded as 10 times; in assay [1] (compared to compound E), 33 times. Also, the figures for the “times as active in protecting against pentetrazol induced clonic convulsions” value in assay [2] (setting [3]) and in assay [2] (compared to compound E) were “approximately 40 times” and 185 times, respectively.
Take `CCc1nc(-c2ncn3c2CN(C)C(=O)c2ccccc2-3)no1` [B]: the “ED50 binding in vivo” value in the assay with benzodiazepine receptors is on record as 1,800 μg/kg. The ED50 is 1.3 mg/kg in assay [1] and 27 mg/kg in assay [2].
The matching figures for `CN1Cc2c(-c3nc(C4CC4)no3)ncn2-c2ccccc2C1=O` [D]: 340 µg/kg, 0.3 mg/kg and 2.7 mg/kg.
In the case of `CC(C)c1noc(-c2ncn3c2CN(C)C(=O)c2ccccc2-3)n1` [C], the “ED50 binding in vivo” value in the assay on benzodiazepine receptors turned out to be 600 µg/kg. Besides, the ED50 in assay [1] is 1.7 mg/kg; in assay [2], 3 mg/kg.
Consider `O=C1c2c(Cl)cccc2-n2cnc(-c3noc(C4CC4)n3)c2C2CCCN12` (stereo not drawn) [E], for which the “ED50 binding in vivo” value in the assay with benzodiazepine receptors was found to be 960 µg/kg. Besides, the ED50 in assay [1] was determined as 1 mg/kg; in assay [2], 13 mg/kg.
